Data reported in EP2216341A1, “Transferrin variants and conjugates” (Novozymes Biopharma UK Limited, priority 2009, dated 2010).

How the values were obtained:
[1] = biological target: T1, transferrin receptor 1 (TfR1) (Homo sapiens, UniProt P02786); assay: Transferrin receptor 1 binding by Surface Plasmon Resonance (SPR, Biacore); conditions: fluorescein conjugated sample
T1 construct: purchased AbD Serotec 9110-300
Text: The receptor binding capability of the recombinant transferrin variants can be determined by Surface Plasmon Resonance (SPR) analysis. The binding activity of a transferrin sample to a transferrin receptor can be measured using surface plasmon resonance (SPR) a non-invasive optical technique in which the SPR response is a measure of change in mass concentration at the detector surface as molecules bind or dissociate. A sample is sent onto the surface of the sensor chip via a micro flow system at a constant flow rate. In this analysis, if the transferrin sample is able to bind to the Transferrin Receptor the mass on the surface sensor chip is increased due to binding between Transferrin Receptor and Transferrin molecules creating a surface plasmon wave, and a shift of the SPR signal proportional to the binding quantity can be detected as a change in the resonance unit (RU). […]
The binding capacity of human serum transferrin to human trabnsferrin receptor 1 may be measured by SPR. […]
The receptor binding capability of the recombinant transferrin variants was assessed by Surface Plasmon Resonance (SPR) analysis. The binding activity of a transferrin sample to transferrin receptor can be measured using surface plasmon resonance (SPR) a non-invasive optical technique in which the SPR response is a measure of change in mass concentration at the detector surface as molecules bind or dissociate. […]

[2] = tested on: K562 erythroleukemic cells; assay: 55Fe uptake from labeled diferric transferrin in erythroleukemic K562 cells; type: cell-based, human; conditions: 25 minutes at 37°C
Method: Human plasma-derived apo-transferrin (Calbiochem 616419, tissue culture grade, pyrogen-free) is supplied lyophilised from 10mM phosphate buffer, pH7.4. The transferrin mutein is expressed, purified and quantified as described above.
For iron-55 uptake from labeled diferric transferrin, K562 erythroleukemic cells, cultured in RPMI cell culture medium under standard conditions (bicarbonate-buffered, 5% (v/v) CO2, antibiotics, 10% (v/v) fetal calf serum) are washed with serum-free medium containing HEPES-buffer and 1 mg/ml of bovine serum albumin and used at a concentration of 10 million cells/ml in this medium. The samples tested are prepared as equimolar concentrations of apo-transferrin mutein. Apo-transferrin mutein is loaded with iron according to a standard procedure (Bates and Schlabach, J Biol Chem, 248, 3228-3232, 1973) using ferric nitrilotriacetate as iron source. Typically 50µl of 1 M NaClO4 is added to 450µl of the transferrin mutein stock-solution (pH is alkaline to neutral). The ^55Fe -NTA-loading-buffer is prepared by mixing 8.5µl 50mM NTA (pH 8.25), 18.9µl 0.1M Tris, 98.8µl Millipore-purified water and 7.5µl ^55FeCl3 in 0.5 N HCl (NEN products). 500µl of transferrin mutein is carefully mixed (dropwise) with the ^55Fe -NTA-loading-buffer and then 310µl of 5mM Hepes. NaOH/0.1M NaClO4 is added. The mixture is incubated at 4°C for 60 min following which it is deslated on a PD-10 column (containing Sephadex G-25) and dialysed. The PD-10 column is equilibrated with 5ml of equilibration buffer (5mM Hepes/NaOH, 0.1M NaClO4, 0.1 g BSA (Amresco)) then washed three times with 5ml of wash buffer (5mM Hepes/NaOH, 0.1M NaClO4). […]
Increasing concentrations of human plasma transferrin or the transferrin mutein sample (0, 25, 100, 200, 400, 800, 1600 nM), labeled with ^55Fe, are mixed with 25 µl of medium. […] The lysates are neutralized with 1 M HCl after overnight lysis, mixed with Readysolv Scintillation cocktail and counted in the Packard Liquid Scintillation Counter. […]

T1 sequence (P02786 whole entry): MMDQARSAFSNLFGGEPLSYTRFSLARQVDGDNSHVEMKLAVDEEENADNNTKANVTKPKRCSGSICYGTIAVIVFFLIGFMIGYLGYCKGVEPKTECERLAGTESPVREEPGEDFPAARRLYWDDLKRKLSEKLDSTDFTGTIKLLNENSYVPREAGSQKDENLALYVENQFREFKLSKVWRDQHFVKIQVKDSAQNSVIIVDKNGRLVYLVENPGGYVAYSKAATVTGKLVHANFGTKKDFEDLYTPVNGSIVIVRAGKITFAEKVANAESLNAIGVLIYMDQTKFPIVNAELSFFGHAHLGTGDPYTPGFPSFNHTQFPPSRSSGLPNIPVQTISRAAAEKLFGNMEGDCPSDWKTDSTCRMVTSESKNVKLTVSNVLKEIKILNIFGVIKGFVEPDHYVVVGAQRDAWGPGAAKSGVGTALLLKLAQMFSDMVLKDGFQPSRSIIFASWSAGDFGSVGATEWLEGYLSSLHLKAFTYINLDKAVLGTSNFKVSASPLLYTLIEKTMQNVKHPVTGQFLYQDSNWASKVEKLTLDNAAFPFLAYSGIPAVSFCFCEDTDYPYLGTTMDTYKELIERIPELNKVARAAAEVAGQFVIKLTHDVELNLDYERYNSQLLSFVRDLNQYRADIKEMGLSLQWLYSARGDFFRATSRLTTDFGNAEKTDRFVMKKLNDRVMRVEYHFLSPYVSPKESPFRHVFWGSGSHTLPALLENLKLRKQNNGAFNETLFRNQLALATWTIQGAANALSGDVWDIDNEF

For “Fluorescein conjugated thio-transferrin (S415C, T613A): thiotransferrin (S415C, T613A) conjugated with fluorescein”, the “ability to bind to transferrin receptor 1 (measured by SPR)” value [1] was “able to bind to transferrin receptor 1 by SPR analysis in a manner equivalent to the unconjugated sample”, the “Specific iron ptake Bmax” value ([2]; 55Fe-labeled sample 0-1600 nM, specific uptake (unspecific binding with hundredfold excess unlabeled diferric transferrin accounted for)) was 3246±217 fmol^55Fe/10^6 cells 25min and the “Total Iron Uptake Bmax” value ([2]; 55Fe-labeled sample 0-1600 nM, total uptake) was 4165±216 fmol^55Fe/10^6 cells x 25min. It also gave a Kd ([2]; specific uptake, read-out: Specific iron ptake Kd x) of 189 ± 47 nM.
